{"source": "paper PMC6379498", "about": "“Radiosynthesis and in vivo evaluation of ^11C-labeled BMS-193885 and its desmethyl analog as PET tracers for neuropeptide Y1 receptors” (EJNMMI Radiopharmacy and Chemistry, 2019)", "key": {"NPY Y1-Rs": {"molecular_target": "T1, NPY Y1-Rs (Mus musculus, UniProt Q04573)", "T1 construct": "in the lung, spleen, and kidney, which are rich in NPY Y1-Rs; from tissue; host or cells: organs of living mice (blood, heart, lung, spleen, kidney, liver, pancreas, muscle, brain etc.)", "T1 sequence (Q04573 1-382)": "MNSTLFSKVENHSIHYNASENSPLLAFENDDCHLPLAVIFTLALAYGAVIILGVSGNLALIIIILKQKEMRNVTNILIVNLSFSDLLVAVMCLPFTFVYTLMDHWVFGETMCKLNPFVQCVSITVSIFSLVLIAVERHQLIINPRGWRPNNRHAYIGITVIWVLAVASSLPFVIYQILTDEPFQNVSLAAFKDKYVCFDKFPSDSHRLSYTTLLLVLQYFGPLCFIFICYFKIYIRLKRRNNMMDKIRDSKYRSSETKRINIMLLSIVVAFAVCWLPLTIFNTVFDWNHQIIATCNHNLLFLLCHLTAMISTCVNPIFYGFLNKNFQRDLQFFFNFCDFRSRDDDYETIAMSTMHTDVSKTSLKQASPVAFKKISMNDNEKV", "experiment": "Effect of pretreatment with 1 (BMS-193885) on tissue distribution of radioactivity", "assay_type": "in vivo, mice", "conditions": "30 min post-injection, 1 10 mg/kg 20-30 min before tracer, vs control", "procedure": "(§1) [^11C]1 (7.1–14 MBq/0.079–0.23 nmol) or [^11C]2 (6.0 MBq/0.16 nmol) was intravenously injected into mice (aged 7–8 weeks, weighing 32–36 g, n = 4–8) 20–30 min after the administration of the solution of 1 (10 mg/kg body weight [b.w.]/0.1 mL water containing 20% Tween 80), elacridar (5 mg/kg b.w./0.1 mL water), or a control fluid (0.1 mL water). Mice were euthanized by cervical dislocation at 30 min post-injection.\nBlood samples were collected by heart puncture. Tissues were dissected and weighed. […] The tissue uptake of radioactivity was expressed as the percentage of injected dose detected per gram of sample (%ID/g, tissue radioactivity/g tissue/injected radioactivity × 100)."}, "P-gp and BCRP": {"tested_on": "P-gp and BCRP", "experiment": "Effect of pretreatment with elacridar on tissue distribution of radioactivity", "assay_type": "in vivo, mice", "conditions": "30 min post-injection, elacridar 5 mg/kg 20-30 min before tracer, vs control", "procedure": "as §1, with “The effects of pretreatment with 1 (BMS-193885) or the ABC transporter-inhibitor elacridar (inhibiting drug efflux transporters, mainly P-gp and BCRP) on tissue distributions of radioactivity were investigated. [^11C]1” for “[^11C]1”\n(§2) Blood samples were collected by heart puncture. Tissues were dissected and weighed. The radioactivity in samples was measured with an automatic gamma counter (Wizard 3′′ 1480, PerkinElmer, Waltham, MA, USA). The tissue uptake of radioactivity was expressed as the percentage of injected dose detected per gram of sample (%ID/g, tissue radioactivity/g tissue/injected radioactivity × 100)."}, "[1]": {"experiment": "Biodistribution of radioactivity in mice after tracer injection", "assay_type": "in vivo", "conditions": "for Radioactivity level, blood / Radioactivity level, brain / Radioactivity level, heart / Radioactivity level, kidney / Radioactivity level, liver / Radioactivity level, lung / Radioactivity level, muscle / Radioactivity level, pancreas / Radioactivity level, small intestine / Radioactivity level, spleen: mean±S.D. n=4", "procedure": "[^11C]1 (13 MBq/0.12 nmol) or [^11C]2 (15 MBq/0.36 nmol) was intravenously injected into mice (aged 7–8 weeks, weighing 33–38 g, n = 4). Mice were euthanized by cervical dislocation at 5, 15, 30, or 60 min post-injection.\nas §2"}}, "data": [{"compound": "COC(=O)C1=C(C)NC(C)=C(C(=O)OC)C1c1cccc(N[11C](=O)NCCCN2CCC(c3cccc(O)c3)CC2)c1", "note": "[[^11C]2]", "values": [{"measurement": "Change of radioactivity level in blood by pretreatment with 1", "setting": "NPY Y1-Rs; blood", "result": "not changed"}, {"measurement": "Change of radioactivity level in brain by pretreatment with 1", "setting": "NPY Y1-Rs; brain", "result": "not changed"}, {"measurement": "Change of radioactivity level in heart by pretreatment with 1", "setting": "NPY Y1-Rs; heart", "result": "not changed"}, {"measurement": "Change of radioactivity level in kidney by pretreatment with 1", "setting": "NPY Y1-Rs; kidney", "result": "significantly decreased"}, {"measurement": "Change of radioactivity level in lung by pretreatment with 1", "setting": "NPY Y1-Rs; lung", "result": "significantly decreased"}, {"measurement": "Change of radioactivity level in muscle by pretreatment with 1", "setting": "NPY Y1-Rs; muscle", "result": "not changed"}, {"measurement": "Change of radioactivity level in pancreas by pretreatment with 1", "setting": "NPY Y1-Rs; pancreas", "result": "not changed"}, {"measurement": "Change of radioactivity level in spleen by pretreatment with 1", "setting": "NPY Y1-Rs; spleen", "result": "significantly decreased"}, {"measurement": "Change of radioactivity level in brain by pretreatment with elacridar", "setting": "P-gp and BCRP; brain", "result": "not increased"}, {"measurement": "Change of radioactivity level in heart by pretreatment with elacridar", "setting": "P-gp and BCRP; heart", "result": "significantly increased"}, {"measurement": "Change of radioactivity level in kidney by pretreatment with elacridar", "setting": "P-gp and BCRP; kidney", "result": "significantly decreased"}, {"measurement": "Change of radioactivity level in liver by pretreatment with elacridar", "setting": "P-gp and BCRP; liver", "result": "significantly increased"}, {"measurement": "Radioactivity level, blood", "setting": "[1]; 5 min after i.v. injection", "result": "0.65±0.05", "unit": "%ID/g"}, {"measurement": "Radioactivity level, blood", "setting": "[1]; 15 min after i.v. injection", "result": "0.21±0.01", "unit": "%ID/g"}, {"measurement": "Radioactivity level, blood", "setting": "[1]; 30 min after i.v. injection", "result": "0.17±0.02", "unit": "%ID/g"}, {"measurement": "Radioactivity level, blood", "setting": "[1]; 60 min after i.v. injection", "result": "0.19±0.20", "unit": "%ID/g"}, {"measurement": "Radioactivity level, brain", "setting": "[1]; 5 min after i.v. injection", "result": "0.05±0.02", "unit": "%ID/g"}, {"measurement": "Radioactivity level, brain", "setting": "[1]; 15 min after i.v. injection", "result": "0.04±0.04", "unit": "%ID/g"}, {"measurement": "Radioactivity level, brain", "setting": "[1]; 30 min after i.v. injection", "result": "0.01±0.00", "unit": "%ID/g"}, {"measurement": "Radioactivity level, brain", "setting": "[1]; 60 min after i.v. injection", "result": "0.03±0.01", "unit": "%ID/g"}, {"measurement": "Radioactivity level, heart", "setting": "[1]; 5 min after i.v. injection", "result": "0.69±0.09", "unit": "%ID/g"}, {"measurement": "Radioactivity level, heart", "setting": "[1]; 15 min after i.v. injection", "result": "0.42±0.02", "unit": "%ID/g"}, {"measurement": "Radioactivity level, heart", "setting": "[1]; 30 min after i.v. injection", "result": "0.28±0.04", "unit": "%ID/g"}, {"measurement": "Radioactivity level, heart", "setting": "[1]; 60 min after i.v. injection", "result": "0.14±0.04", "unit": "%ID/g"}, {"measurement": "Brain penetration", "setting": "[1]; judged from brain radioactivity at 30 min", "result": "penetrated the brain poorly"}, {"measurement": "Radioactivity level, kidney", "setting": "[1]; 5 min after i.v. injection", "result": "13.25±1.18", "unit": "%ID/g"}, {"measurement": "Radioactivity level, kidney", "setting": "[1]; 15 min after i.v. injection", "result": "10.96±0.51", "unit": "%ID/g"}, {"measurement": "Radioactivity level, kidney", "setting": "[1]; 30 min after i.v. injection", "result": "9.89±0.52", "unit": "%ID/g"}, {"measurement": "Radioactivity level, kidney", "setting": "[1]; 60 min after i.v. injection", "result": "9.23±1.61", "unit": "%ID/g"}, {"measurement": "Radioactivity level, liver", "setting": "[1]; 5 min after i.v. injection", "result": "29.54±1.57", "unit": "%ID/g"}, {"measurement": "Radioactivity level, liver", "setting": "[1]; 15 min after i.v. injection", "result": "24.28±3.04", "unit": "%ID/g"}, {"measurement": "Radioactivity level, liver", "setting": "[1]; 30 min after i.v. injection", "result": "15.54±4.41", "unit": "%ID/g"}, {"measurement": "Radioactivity level, liver", "setting": "[1]; 60 min after i.v. injection", "result": "8.43±2.71", "unit": "%ID/g"}, {"measurement": "Radioactivity level, lung", "setting": "[1]; 5 min after i.v. injection", "result": "1.00±0.08", "unit": "%ID/g"}, {"measurement": "Radioactivity level, lung", "setting": "[1]; 15 min after i.v. injection", "result": "0.79±0.11", "unit": "%ID/g"}, {"measurement": "Radioactivity level, lung", "setting": "[1]; 30 min after i.v. injection", "result": "0.82±0.13", "unit": "%ID/g"}, {"measurement": "Radioactivity level, lung", "setting": "[1]; 60 min after i.v. injection", "result": "0.65±0.08", "unit": "%ID/g"}, {"measurement": "Radioactivity level, muscle", "setting": "[1]; 5 min after i.v. injection", "result": "0.44±0.21", "unit": "%ID/g"}, {"measurement": "Radioactivity level, muscle", "setting": "[1]; 15 min after i.v. injection", "result": "0.30±0.02", "unit": "%ID/g"}, {"measurement": "Radioactivity level, muscle", "setting": "[1]; 30 min after i.v. injection", "result": "0.38±0.17", "unit": "%ID/g"}, {"measurement": "Radioactivity level, muscle", "setting": "[1]; 60 min after i.v. injection", "result": "0.33±0.19", "unit": "%ID/g"}, {"measurement": "Radioactivity level, pancreas", "setting": "[1]; 5 min after i.v. injection", "result": "1.20±0.18", "unit": "%ID/g"}, {"measurement": "Radioactivity level, pancreas", "setting": "[1]; 15 min after i.v. injection", "result": "1.27±0.11", "unit": "%ID/g"}, {"measurement": "Radioactivity level, pancreas", "setting": "[1]; 30 min after i.v. injection", "result": "1.18±0.18", "unit": "%ID/g"}, {"measurement": "Radioactivity level, pancreas", "setting": "[1]; 60 min after i.v. injection", "result": "1.15±0.13", "unit": "%ID/g"}, {"measurement": "Radioactivity level, small intestine", "setting": "[1]; 5 min after i.v. injection", "result": "15.78±6.51", "unit": "%ID/g"}, {"measurement": "Radioactivity level, small intestine", "setting": "[1]; 15 min after i.v. injection", "result": "30.77±8.94", "unit": "%ID/g"}, {"measurement": "Radioactivity level, small intestine", "setting": "[1]; 30 min after i.v. injection", "result": "27.23±12.69", "unit": "%ID/g"}, {"measurement": "Radioactivity level, small intestine", "setting": "[1]; 60 min after i.v. injection", "result": "13.52±4.25", "unit": "%ID/g"}, {"measurement": "Radioactivity level, spleen", "setting": "[1]; 5 min after i.v. injection", "result": "0.79±0.11", "unit": "%ID/g"}, {"measurement": "Radioactivity level, spleen", "setting": "[1]; 15 min after i.v. injection", "result": "0.55±0.07", "unit": "%ID/g"}, {"measurement": "Radioactivity level, spleen", "setting": "[1]; 30 min after i.v. injection", "result": "0.37±0.07", "unit": "%ID/g"}, {"measurement": "Radioactivity level, spleen", "setting": "[1]; 60 min after i.v. injection", "result": "0.23±0.05", "unit": "%ID/g"}]}]}
